What was measured:
Type in all cases: cell-based, human
[1] = system: PBMCs (IL-2-producing cells); test: IL-2 ELISPOT assay on PBMCs after BeSO4 exposure
Method: (§1) In one exemplary method, ELISPOT assays were performed using plates (ImmunoSpot M200, BD Biosciences Pharmingen) that were coated with, IFN-γ or IL-2 capture mAb (BD Biosciences Pharmingen) overnight and blocked with Blocking Solution containing RPMI 1640 supplemented with 10% heat-inactivated fetal bovine serum (Tissue Culture Biologicals, Tulare Calif.), 20 mM HEPES, 1 mM sodium pyruvate, 100 U/ml penicillin, 100 μg/ml streptomycin, and 2 mM L-glutamine (e.g. all from Life Technologies, Gaithersburg Md.) for 2 h at room temperature. Freshly isolated PBMCs (5×10^5 cells/well) were added to wells and incubated overnight at 37° C. in a humidified 5% CO2 atmosphere with medium, PHA, or BeSO4. ELISpot assays were performed in triplicate. The wells were washed, and IFN-γ or IL-2 detection mAbs (BD Biosciences Pharmingen) were added, and the proteins were visualized by successive additions of avidin-horseradish peroxidase and 3-amino-9-ethylcarbazole (AEC) substrate reagent (BD Biosciences Pharmingen). The ELISpot plates were analyzed using a for example a CTL Immunospot Analyzer (Cellular Technology Ltd., Cleveland, Ohio), and results are reported as mean±SD spot-forming units (SFU) per well minus background SFU.

[2] = system: PBMCs (IFN-γ-producing cells); test: IFN-γ ELISPOT assay on PBMCs after BeSO4 exposure; conditions: for ratio of IFN-γ- to IL-2-secreting cells (median): ELISPOT; for subjects demonstrating beryllium-induced IFN-γ production: threshold >1.4 SFU
Method: as §1
In one exemplary method ELISPOT assays were performed on fresh PBMCs from 12 healthy control, 18 BeS and 33 CBD subjects (Table 1).

CD4+ T cells = test: Intracellular cytokine staining (IFN-γ, IL-2) by flow cytometry
Method: . Cells were stained with mAbs directed against CD4 and CD8 (BD Biosciences Pharmingen) followed by fixation, permeabilization, and staining with mAbs directed against IFN-γ and/or IL-2 (Caltag, Burlingame, Calif.). The lymphocyte population was identified using forward and 90° light scatter patterns, and fluorescence intensity was analyzed using a FACScaliber cytometer (Becton Dickinson) as previously described but any means known in the art may be used to identify this population.
For example, the ratio of IFN-γ- to IL-2-secreting cells determined by ELISPOT analysis was 2.7 (median; range, 0.5-167) for CBD patients (n=33) and 1.8 (median; range, 0.5-6.9) for BeS patients (n=18) (P=0.07). To further address this issue, intracellular cytokine staining was performed on blood from 11 of the 33 CBD subjects who had large enough populations (>0.04%) of circulating beryllium-specific CD4+ T cells to allow for evaluation of Th1-type cytokine expression after beryllium exposure in culture. […] IFN-γ and IL-2 expression in CD4− T cells was equal to background levels. In the peripheral blood, the beryllium-specific CD4+ T cells appeared equally divided into two groups: T cells capable of expressing both IFN-γ and IL 2 and another expressing only IFN-γ (FIG. 4B). Similar to T cells in the lung (12), almost no cells were detected that produced IL-2 in the absence of IFN-γ expression. In these eleven CBD patients, the median percentage of IFN-γ-expressing CD4+ T cells was 0.29% (range, 0.1%-1.1%) compared to 0.07% for IL-2 (0%-0.49%; P=0.007) (FIG. 4C).

PBMCs = test: Lymphocyte proliferation assay ([3H]thymidine, BeLPT)
Method: In one exemplary method, proliferation assays were performed using PBMCs (2.5×10^5 cells/well) cultured for 4-6 days in complete culture media containing RPMI 1640 supplemented with 10% heat-inactivated human serum (Gemini Bio-Products, Woodland Calif.) with the following stimulants: medium, 2.5 μg/ml phytohemagglutinin (PHA), 1×10^−4 M or 1×10^−5 M BeSO4 (example of one beryllium composition). The wells were pulsed with 1 μCi of [^3H] thymidine for 18 hours, and incorporation of radioactivity was determined by β-emission spectroscopy. Proliferation assays were performed in quadruplicate. The data are presented as stimulation index (SI) with a positive response defined as […]. Any other means known in the art for assessing proliferation of cells may be used.
In another exemplary method, PBMCs from healthy control, BeS, and CBD subjects described above were examined for beryllium-induced proliferation at the same time as the ELISPOT assays were performed. […] The median SI for PBMCs from BeS and CBD patients exposed to 1×10^−4 M BeSO4 was 2.8 (range, 0.5-42) and 3.5 (0.6-85) (P=0.49), respectively. The findings were similar when expressed as ΔCPM, with the median ΔCPM from BeS and CBD patients exposed to 1×10^−4 M BeSO4 being 917 (range, 0-36,355) and 1514 (range, 0-20,884), respectively (P=0.85). […] In one exemplary method, ELISPOT analysis for IFN-γ was able to detect the presence of beryllium-specific T cells in blood. […] In 6 BeS and 7 CBD subjects, the ELISPOT assay detected IFN-γ- and/or IL-2-secreting cells in response to beryllium exposure in culture while no beryllium-induced proliferation was detected at the time of the study. […] For example, in CBD patients, the median number of beryllium-induced, IFN-γ-expressing cells was 83 SFU (range, 0-645) in subjects with and 48 SFU (range, 10-112; P=0.3) in subjects without beryllium-induced proliferation. Beryllium-induced proliferation occurred in the absence of detectable cytokine secretion in only 2 CBD patients, while both ELISPOT analysis and proliferation assay were negative in 2 BeS and 3 CBD patients.

[3] = representative CBD subject, FIG. 4A, following beryllium exposure

Compound: O=S(=O)([O-])[O-].[Be+2] [BeSO4, Beryllium sulfate]
- median number of IL-2-producing cells ([1]; BeS subjects): 2.8 SFU
- median number of IL-2-producing cells ([1]; CBD patients): 16 SFU/5×10^5 cells
- median number of IL-2-producing cells ([1]; normal control subjects): 0 SFU
- ratio of IFN-γ- to IL-2-secreting cells (median) ([2]; BeS patients (n=18)): 1.8
- median number of IFN-γ producing cells in blood ([2]; BeS subjects (n=18), 1×10^−4 M BeSO4): 6.3 SFU
- subjects demonstrating beryllium-induced IFN-γ production ([2]; BeS subjects, 13 of 18, 1×10^−4 M BeSO4): 72%
- patients with a positive ELISPOT assay ([2]; CBD and BeS subjects, 41 of 51): 80%
- median number of IFN-γ producing cells in blood ([2]; CBD patients (n=33), 1×10^−4 M BeSO4): 52 SFU
- ratio of IFN-γ- to IL-2-secreting cells (median) ([2]; CBD patients (n=33)): 2.7
- median number of beryllium-induced, IFN-γ-expressing cells ([2]; CBD patients with beryllium-induced proliferation): 83 SFU
- median number of beryllium-induced, IFN-γ-expressing cells ([2]; CBD patients without beryllium-induced proliferation): 48 SFU
- subjects demonstrating beryllium-induced IFN-γ production ([2]; CBD subjects, 28 of 33, 1×10^−4 M BeSO4): 85%
- IFN-γ SFU (mean±SD) of the one healthy control with a positive response ([2]; healthy control subject, 1×10^−4 M BeSO4): 2.0±2.1 SFU per 5×10^5 cells
- median number of IFN-γ producing cells in blood ([2]; normal control subjects (n=12), 1×10^−4 M BeSO4): 0.4 SFU
- median number of IFN-γ producing cells in blood ([2]; treated CBD subjects, 1×10^−4 M BeSO4): 117
- median number of IFN-γ producing cells in blood ([2]; untreated CBD subjects, 1×10^−4 M BeSO4): 34
- median percentage of IFN-γ-expressing CD4+ T cells (CD4+ T cells; eleven CBD patients): 0.29%
- median percentage of IL-2-expressing CD4+ T cells (CD4+ T cells; eleven CBD patients): 0.07%
- CD4+ T cells expressing IFN-γ (CD4+ T cells; [3]): 1.1%
- CD4+ T cells expressing IL-2 (CD4+ T cells; [3]): 0.5%
- patients with a positive proliferative response (PBMCs; BeS patients, 10 of 18, 1×10^−4 M BeSO4): 55%
- median SI (stimulation index) (PBMCs; BeS patients, 1×10^−4 M BeSO4): 2.8
- median ΔCPM (PBMCs; BeS patients, 1×10^−4 M BeSO4): 917
- subjects with a positive beryllium-induced proliferative response (BeLPT) (PBMCs; CBD and BeS subjects, 33 of 51): 65%
- patients with a positive proliferative response (PBMCs; CBD patients, 23 of 33, 1×10^−4 M BeSO4): 70%
- median SI (stimulation index) (PBMCs; CBD patients, 1×10^−4 M BeSO4): 3.5
- median ΔCPM (PBMCs; CBD patients, 1×10^−4 M BeSO4): 1514
- median SI (stimulation index) (PBMCs; control subjects, 1×10^−4 M BeSO4): 0.5
- median SI (stimulation index) (PBMCs; control subjects, 1×10^−5 M BeSO4): 0.7
